Data: publication PMC9837035 (Nature Communications, 2023)
Values joined by “and” are separate entries in the source; they are usually repeats but may differ in a detail not shown here. Equal entries are not always repeated.

Assays:
[1] = test system: BGLT3 RNA in HUDEP-2 cells; assay: RT-qPCR of BGLT3 in HUDEP-2 cells; format: cell-based, human; settings: Sup.Fig.11a; relative to DMSO = 1; replicate values
Procedure: (§1) Total cellular RNA was prepared using the Tissue Total RNA Mini Kit (FAVORGEN), and cDNA was synthesized using ReverTra Ace Master Mix (TOYOBO). Expression of target genes was analyzed using THUNDERBIRD SYBR qPCR Mix (TOYOBO) on a CFX Connect Real Time System (Bio-Rad). The qPCR data were acquired on CFX Maestro (Bio-Rad). Primers are listed in Supplementary Table 10. GAPDH was used as a reference. Primers were purchased from INTEGRATED DNA TECHNOLOGIES or FASMAC.

[2] = test system: BGLT3-knockdown HUDEP-2 cells; assay: RT-qPCR of BGLT3, β- and γ-globin in BGLT3-knockdown HUDEP-2 cells; format: cell-based, human; settings: 1 μM, relative to shctrl DMSO = 1, replicate values
Procedure: as §1
Retroviral infection was used as previously described to establish cell lines stably expressing BGLT3 and transfected with the pCX4-pur vector, as well as knockdown cell lines transfected with the pSUPER vector[58]. Briefly, retroviruses were produced by transfecting PLAT-E cells with pCX4-pur-BGLT3 or pSUPER-ctrl, pSUPER-BGLT3, or pSUPER-G9a using 5 μg/mL polyethylenimine MAX (PEI MAX, Polysciences). Two days after transfection, the culture supernatant was collected and filtered through a 0.45-μm filter (Millipore) and used for infection with 8 μg/mL polybrene (Sigma). Forty-eight hours after infection, the infected cells were selected with 0.2 μg/mL puromycin (InvivoGen). The clonal puromycin-resistant cells were established via limiting dilution. The desired clones were confirmed by western blotting or qPCR.

[3] = test system: H3K9ac at the β-globin locus; assay: ChIP-qPCR with antibody against H3K9ac in HUDEP-2 cells; format: cell-based, human; design: ChIP-qPCR using antibodies against H3K9ac in HUDEP-2 cells treated with SAHA: unit not given here; settings: for ChIP-qPCR using antibodies against H3K9ac in HUDEP-2 cells treated with SAHA: experiments 1-3, a/b replicates
Procedure: A total of 0.5–1 × 10^6 cells were cross-linked with 1% formaldehyde for 10 min at room temperature and the reaction was quenched with 250 mM glycine. Cross-linked cells were then lysed with buffer 1 (15 mM Tris-HCl (pH 7.5), 60 mM KCl, 15 mM NaCl, 5 mM MgCl2, 0.1 mM EGTA, 300 mM sucrose, […], 1 mM phenylmethanesulfonyl fluoride (PMSF), 0.5% NP40) and incubated on ice for 10 min. […] After centrifugation, the pellet was then re-suspended in MNase buffer (50 mM Tris-HCl (pH 7.5), 1 mM CaCl2, 4 mM MgCl2, 320 mM sucrose, 1 mM PMSF) and digested with 100 U of micrococcal nuclease (Takara) at 37 °C for 15 min. […] Beads were washed sequentially once with the following buffers: wash buffer A (50 mM Tris-HCl (pH 7.5), 75 mM NaCl, 10 mM EDTA, 0.01% NP40), wash buffer B (50 mM Tris-HCl (pH 7.5), 100 mM NaCl, 10 mM EDTA, 0.01% NP40), wash buffer C (50 mM Tris-HCl (pH 7.5), 175 mM NaCl, 10 mM EDTA, 0.01% NP40). After treatment with proteinase K in buffer 4 (20 mM Tris-HCl (pH 8.0), 10 mM EDTA, 400 mM NaCl, 0.5% SDS) at 56 °C overnight, DNA was purified using the FastGene Gel/PCR Extraction Kit (Nippon Genetics). The samples were analyzed by qPCR. Primers are listed in Supplementary Table 10. ChIP-seq experiments were performed by GENEWIZ. Tracks were visualized using the integrative genome viewer. ChIP-seq analysis were analyzed Cutadapt (V1.9.1) for QC, FastQC (V0.10.1) for QC assessment, Bowtie (V2.1.0) for mapping, strand cross-correlation (SCC) for ChIP quality assessment, MACS2 for peak calling, and R package ChIPpeakAnno for Peak annotated.

mice = assay: Mouse acute toxicity assay, survival; format: in vivo; settings: intravenous, 2-week observation
Procedure: All animal studies were approved by the Institutional Committee for Animal Experiments of the Institute of Microbial Chemistry, and were performed in accordance with relevant guidelines and regulations to minimize animal suffering. Four-week-old female ICR mice were purchased from Charles River Breeding Laboratories (Yokohama, Japan) and maintained in a specific pathogen-free barrier facility. […] Samples were dissolved in saline containing 10% DMSO and 1% Tween 80 and injected intravenously into mice.

[4] = Cell viability assay (WST-8), HUDEP-2; format: cell-based, human; settings: human, HUDEP-2 cells, control (0 μM) = 100
Procedure: (§2) A WST-8 (2-(2-methoxy-4-nitrophenyl)-3-(4-nitrophenyl)-5-(2,4-disulfophenyl)-2H-tetrazolium) assay using a Cell Counting Kit-8 (DOJINDO) was performed to measure cell viability using an EnSpire microplate reader (PerkinElmer).

HUDEP-2 cells = assay: Cell viability assay (WST-8), HUDEP-2; format: cell-based, human; settings: control (0 μM) = 100
Procedure: as §2

[5] = test system: rat myoblast cell line H9c2; assay: Cell viability assay (WST-8), H9c2; format: cell-based; settings: control (0 μM) = 100
Procedure: as §2

O=C(CCCCCCC(=O)Nc1ccccc1)NO [SAHA]
BGLT3 expression in HUDEP-2 cells [1]: 4.739 and 6.125 and 5.109
β-globin gene in BGLT3-knockdown HUDEP-2 cells ([2]; shBGLT3 #1): 2.301 and 2.189 and 2.546
γ-globin gene in BGLT3-knockdown HUDEP-2 cells ([2]; shBGLT3 #1): 4.852 and 4.747 and 4.193
β-globin gene in BGLT3-knockdown HUDEP-2 cells ([2]; shBGLT3 #2): 1.2128 and 1.2413 and 1.0394
γ-globin gene in BGLT3-knockdown HUDEP-2 cells ([2]; shBGLT3 #2): 3.094 and 3.659 and 2.955
β-globin gene in BGLT3-knockdown HUDEP-2 cells ([2]; shBGLT3 #3): 2.448 and 2.303 and 2.192
γ-globin gene in BGLT3-knockdown HUDEP-2 cells ([2]; shBGLT3 #3): 2.0995 and 2.031 and 1.807
β-globin gene in BGLT3-knockdown HUDEP-2 cells ([2]; shctrl): 3.928 and 4.654 and 3.722
γ-globin gene in BGLT3-knockdown HUDEP-2 cells ([2]; shctrl): 13.6262 and 15.6907 and 11.2259
ChIP-qPCR using antibodies against H3K9ac in HUDEP-2 cells treated with SAHA ([3]; BGLT3 locus): 4.594 and 4.901 and 3.587 and 4.136 and 7.628 and 5.8678
ChIP-qPCR using antibodies against H3K9ac in HUDEP-2 cells treated with SAHA ([3]; HS1): 3.554 and 4.79 and 1.956 and 6.9673 and 5.354
ChIP-qPCR using antibodies against H3K9ac in HUDEP-2 cells treated with SAHA ([3]; HS2): 3.581 and 3.815 and 1.139 and 1.6187 and 3.866 and 3.138
ChIP-qPCR using antibodies against H3K9ac in HUDEP-2 cells treated with SAHA ([3]; HS3): 2.6549 and 2.681 and 1.467 and 2.973 and 2.979
ChIP-qPCR using antibodies against H3K9ac in HUDEP-2 cells treated with SAHA ([3]; HS4): 3.747 and 4.945 and 3.035 and 2.8654 and 4.964 and 4.658
histone H3 acetylation at the β-globin gene locus ([3]; HUDEP-2, 1 μM, 1 day): increased
ChIP-qPCR using antibodies against H3K9ac in HUDEP-2 cells treated with SAHA ([3]; β-globin promoter): 1.524 and 1.253 and 1.188 and 2.806 and 2.767
ChIP-qPCR using antibodies against H3K9ac in HUDEP-2 cells treated with SAHA ([3]; γ-globin promoter): 0.7378 and 1.324 and 1.03 and 1.066 and 1.991 and 1.048
ChIP-qPCR using antibodies against H3K9ac in HUDEP-2 cells treated with SAHA ([3]; δ-globin promoter): 4.601 and 5.375 and 3.661 and 4.076 and 5.898 and 5.487

COc1cc2c(NC3CCN(C(C)C)CC3)nc(N3CCC(F)(F)CC3)nc2cc1OCCCN1CCCC1 [UNC0642]
Number of alive mice (mice; 1.5625 mg/kg): 3/3
Number of alive mice (mice; 3.125 mg/kg): 3/3
Number of alive mice (mice; 6.25 mg/kg): 2/3
Number of alive mice (mice; 12.5 mg/kg): 1/3
Number of alive mice (mice; 25 mg/kg): 0/3
viability at 0.00457247 μM ([4]; 0.00457247 μM): 97.1%
viability at 0.0137174 μM ([4]; 0.0137174 μM): 87.4%
viability at 0.0411523 μM ([4]; 0.0411523 μM): 86.5%
viability at 0.123457 μM ([4]; 0.123457 μM): 92.1%
viability at 0.37037 μM ([4]; 0.37037 μM): 85.8%
viability at 1.11111 μM ([4]; 1.11111 μM): 85.2%
viability at 3.33333 μM ([4]; 3.33333 μM): 54.8%
viability at 10 μM ([4]; 10 μM): 8.77%
cell viability in HUDEP-2 cells (HUDEP-2 cells; 0.00457247 μM): 98.5098 and 95.7411
cell viability in HUDEP-2 cells (HUDEP-2 cells; 0.0137174 μM): 90.6667 and 93.356
cell viability in HUDEP-2 cells (HUDEP-2 cells; 0.0411523 μM): 91.9216 and 91.6525
cell viability in HUDEP-2 cells (HUDEP-2 cells; 0.123457 μM): 105.098 and 92.3339
cell viability in HUDEP-2 cells (HUDEP-2 cells; 0.37037 μM): 89.4118 and 91.9932
cell viability in HUDEP-2 cells (HUDEP-2 cells; 1.11111 μM): 93.8039 and 89.2675
cell viability in HUDEP-2 cells (HUDEP-2 cells; 3.33333 μM): 61.4902 and 56.2181
cell viability in HUDEP-2 cells (HUDEP-2 cells; 10 μM): 12.549 and 12.2658
cell viability in H9c2 cells ([5]; 0.039 μM): 113.444 and 97.977 and 82.062
cell viability in H9c2 cells ([5]; 0.156 μM): 119.033 and 94.058 and 85.452
cell viability in H9c2 cells ([5]; 0.625 μM): 120.242 and 96.207 and 89.831
cell viability in H9c2 cells ([5]; 2.5 μM): 126.737 and 89.381 and 103.107
cell viability in H9c2 cells ([5]; 10.0 μM): 69.940 and 117.826 and 118.079
